The target of assay [1] is neuronal acetylcholine receptor subunit alpha-2 (Xenopus tropicalis, UniProt A0A6I8T284).
The target in assay [2] is cholinergic receptor, nicotinic, alpha 1 (Muscle) isoform X1 (Xenopus sp., UniProt F6RLM5).
Assay [3] addresses neuronal acetylcholine receptor subunit alpha-4 (Xenopus sp., UniProt A9JRM3).
Assay [4] deals with Cholinergic receptor nicotinic alpha 5 subunit (Xenopus sp., UniProt F7ELS1).
Assay [5] deals with Cholinergic receptor, nicotinic alpha 1 (Xenopus sp., UniProt F6RLA9).
Sequence of Cholinergic receptor, nicotinic alpha 1 (F6RLA9 whole entry): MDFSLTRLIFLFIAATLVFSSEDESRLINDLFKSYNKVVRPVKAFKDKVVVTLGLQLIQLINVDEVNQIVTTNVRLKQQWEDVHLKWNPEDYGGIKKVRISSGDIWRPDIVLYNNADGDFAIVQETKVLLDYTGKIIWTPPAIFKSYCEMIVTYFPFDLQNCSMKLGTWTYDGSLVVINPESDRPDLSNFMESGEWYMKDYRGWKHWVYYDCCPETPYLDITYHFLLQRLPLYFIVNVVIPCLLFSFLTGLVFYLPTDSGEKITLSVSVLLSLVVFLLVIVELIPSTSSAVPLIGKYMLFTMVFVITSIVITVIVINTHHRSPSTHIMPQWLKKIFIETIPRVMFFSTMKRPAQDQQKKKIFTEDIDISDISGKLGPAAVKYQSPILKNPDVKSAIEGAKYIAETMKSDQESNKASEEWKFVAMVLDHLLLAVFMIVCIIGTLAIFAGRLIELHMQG

We go through eight compounds from BindingDB's records for doi:10.1124/jpet.102.035899 (University of Miami, 2002).

Molecules are shown by their SMILES. Where “and” joins values, the source holds several entries; their conditions need not be identical. Identical values can stand only once.

Sequence of neuronal acetylcholine receptor subunit alpha-4 (A9JRM3 whole entry): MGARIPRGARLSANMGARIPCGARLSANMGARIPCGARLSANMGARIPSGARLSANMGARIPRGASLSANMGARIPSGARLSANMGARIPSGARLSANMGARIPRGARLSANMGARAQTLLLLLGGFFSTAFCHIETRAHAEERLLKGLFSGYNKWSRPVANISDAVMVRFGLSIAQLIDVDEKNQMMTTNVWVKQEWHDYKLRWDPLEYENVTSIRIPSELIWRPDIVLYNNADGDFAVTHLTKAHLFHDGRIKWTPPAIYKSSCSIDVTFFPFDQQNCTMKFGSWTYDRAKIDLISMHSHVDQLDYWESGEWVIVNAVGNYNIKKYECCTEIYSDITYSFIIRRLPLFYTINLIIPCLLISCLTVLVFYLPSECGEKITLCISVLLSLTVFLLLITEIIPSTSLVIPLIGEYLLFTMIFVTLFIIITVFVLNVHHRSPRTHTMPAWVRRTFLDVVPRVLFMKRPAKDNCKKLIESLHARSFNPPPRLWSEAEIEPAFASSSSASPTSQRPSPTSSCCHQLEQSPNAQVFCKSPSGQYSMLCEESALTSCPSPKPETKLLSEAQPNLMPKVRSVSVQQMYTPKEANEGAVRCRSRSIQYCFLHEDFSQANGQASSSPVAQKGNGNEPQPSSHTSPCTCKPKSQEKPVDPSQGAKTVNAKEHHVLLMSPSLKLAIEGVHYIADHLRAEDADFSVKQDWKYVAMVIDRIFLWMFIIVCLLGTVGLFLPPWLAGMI
Sequence of neuronal acetylcholine receptor subunit alpha-2 (A0A6I8T284 whole entry, canonical isoform): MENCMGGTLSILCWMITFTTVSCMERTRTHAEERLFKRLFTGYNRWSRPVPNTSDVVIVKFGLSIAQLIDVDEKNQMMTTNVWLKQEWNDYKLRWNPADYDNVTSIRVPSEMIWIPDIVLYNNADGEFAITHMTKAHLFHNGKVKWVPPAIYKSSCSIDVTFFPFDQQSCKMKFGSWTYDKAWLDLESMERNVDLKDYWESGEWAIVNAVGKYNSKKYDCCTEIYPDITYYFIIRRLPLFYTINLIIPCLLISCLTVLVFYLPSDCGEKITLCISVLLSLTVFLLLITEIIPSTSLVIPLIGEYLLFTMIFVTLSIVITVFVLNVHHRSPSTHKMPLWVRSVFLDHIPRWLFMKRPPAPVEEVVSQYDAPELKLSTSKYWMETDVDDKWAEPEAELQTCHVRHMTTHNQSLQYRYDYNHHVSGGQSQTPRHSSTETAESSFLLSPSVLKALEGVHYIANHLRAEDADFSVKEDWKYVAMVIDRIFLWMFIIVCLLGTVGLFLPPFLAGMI
Sequence of Cholinergic receptor nicotinic alpha 5 subunit (F7ELS1 whole entry): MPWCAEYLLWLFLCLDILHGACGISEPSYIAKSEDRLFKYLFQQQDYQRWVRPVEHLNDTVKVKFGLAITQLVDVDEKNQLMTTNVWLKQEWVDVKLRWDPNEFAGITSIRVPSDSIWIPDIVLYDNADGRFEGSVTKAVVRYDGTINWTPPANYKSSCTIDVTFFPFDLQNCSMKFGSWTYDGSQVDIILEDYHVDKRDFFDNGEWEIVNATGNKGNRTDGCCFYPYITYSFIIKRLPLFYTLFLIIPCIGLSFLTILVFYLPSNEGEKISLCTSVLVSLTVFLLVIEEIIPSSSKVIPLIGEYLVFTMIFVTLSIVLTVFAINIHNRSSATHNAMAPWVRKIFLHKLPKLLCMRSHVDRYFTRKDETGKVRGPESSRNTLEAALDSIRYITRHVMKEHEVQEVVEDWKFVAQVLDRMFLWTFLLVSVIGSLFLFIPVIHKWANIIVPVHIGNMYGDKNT
Sequence of cholinergic receptor, nicotinic, alpha 1 (Muscle) isoform X1 (F6RLM5 whole entry, canonical isoform): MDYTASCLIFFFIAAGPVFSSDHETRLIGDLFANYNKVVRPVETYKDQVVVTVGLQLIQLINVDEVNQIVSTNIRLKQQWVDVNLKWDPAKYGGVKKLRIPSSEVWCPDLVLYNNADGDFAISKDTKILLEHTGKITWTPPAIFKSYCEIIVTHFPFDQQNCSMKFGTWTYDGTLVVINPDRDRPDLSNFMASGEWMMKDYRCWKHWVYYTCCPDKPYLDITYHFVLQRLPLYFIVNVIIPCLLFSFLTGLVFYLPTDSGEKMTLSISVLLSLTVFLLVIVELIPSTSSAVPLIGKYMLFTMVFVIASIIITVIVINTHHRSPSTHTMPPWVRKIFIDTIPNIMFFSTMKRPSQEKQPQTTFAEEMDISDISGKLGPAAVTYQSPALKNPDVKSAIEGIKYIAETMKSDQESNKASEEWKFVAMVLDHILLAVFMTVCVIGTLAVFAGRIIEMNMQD

In the case of `O=c1ccc([C@H]2CC3CCC2N3)c[nH]1` (some centres not stated), the Ki in assay [1], in assay [2] and in assay [3] was 100 nM each time.

In turn, `Clc1ccc([C@H]2CC3CCC2N3)cn1` (stereo partly drawn) [2-(6-Chloro-pyridin-3-yl)-7-aza-bicyclo[2.2.1]heptane(+/-) epibatidine] displayed a Ki in assay [1] of 87 nM.

Consider `Brc1ccc([C@H]2CC3CCC2N3)cn1` (some centres not stated) [NBEP], for which the Ki is 0.013 nM and 0.055 nM in assay [1]; 0.004 nM in assay [2]; 0.22 nM in assay [4]; 0.01 nM in assay [3]; 0.044 nM in assay [5].

For the compound `CN(C)c1ccc([C@H]2CC3CCC2N3)cn1` (some centres not stated) [NDMNEP], the Ki in assay [1], in assay [2] and in assay [3] was 100 nM each time.

Consider `c1cncc([C@H]2CC3CCC2N3)c1` (some centres not stated) [NEP], for which the Ki in assay [2] amounted to 0.0031 nM; in assay [4], 11 nM; in assay [3] it was 0.0085 nM; in assay [5] it was 3.2 nM.

Turning to `Fc1ccc([C@H]2CC3CCC2N3)cn1` (some centres not stated) [NFEP], the Ki in assay [2] was found to be 0.0038 nM; in assay [4], 2.1 nM; in assay [3] it was 0.0092 nM; in assay [5] it was 0.48 nM.

As for `Nc1ccc([C@H]2CC3CCC2N3)cn1` (some centres not stated) [NNEP], the Ki in assay [2] was 0.077 nM; in assay [4], 7.2 nM; in assay [3] it was 0.35 nM; in assay [5], 4.3 nM.

Regarding `O=S(=O)(Oc1ccc([C@H]2CC3CCC2N3)cn1)C(F)(F)F` (some centres not stated) [NTEP], the results for the Ki in assay [1], in assay [2] and in assay [3] were 10 nM, 100 nM and 100 nM, respectively.

As usually defined, the Ki is the equilibrium dissociation constant of an inhibitor or competing ligand from its target. Low readings indicate tighter binding, high ones weaker binding.
